Test results as given in patent publication US20220241308A1, “NEURONAL FUNCTION MODULATING AGENT” (University of Tsukuba, priority 2019, published 2022).

Columns and labels:
SH-SY5Y cells [1] = assay: Reactive oxygen species measurement experiment (OxiSelect Intracellular ROS assay kit); type: cell-based; details: 12.56 μM with amyloid β protein 5 μM, 1 h
Experimental: Specifically, OxiSelect™ Intracellular ROS assay kit (Cell Biolabs Ink) was used to measure the reactive oxygen species level according to protocol recommended by Cell Biolabs Ink (URL: https://www.cellbiolabs.com/sites/default/files/STA-342-ROS-assay-kit.pdf)) of Cell Biolabs Ink Co., Ltd. (designated as “Control” in FIG. 10).
Each well of a 96-well plate (BD Biocoat) was seeded with SH-SY5Y cells (ATCC, model of neuronal cells) at a concentration of 2×10^5 cells/mL (100 μL/well) and the cells cultured at 37° C. and 5% CO2 for 24 h. Culture medium used was F12/DMEM (Gibco) supplemented with 1% non-essential amino acids (Gibco), 15% FBS (Bio West), and 1% penicillin/streptomycin (Lonza).
After 24 h, the culture medium was completely removed with an aspirator, 20×DCFH-DA (reagent included in the assay kit) was mixed with culture medium Opti-MEM (Gibco) (reagent was diluted 20 times), 100 μL of the mixture was added to each well, and the cells were cultured at 37° C. and 5% CO2 for 1 h. The culture medium Opti-MEM with 20×DCFH-DA was then completely removed with an aspirator, […] of fresh Opti-MEM (Gibco) was added to each well, and the cells were cultured at 37° C. and 5% CO2 for 1 h. […] Fluorescence at 480 nm/530 nm was measured on a microplate reader (Sumitomo Dainippon Pharma) to find the relative ROS production (designated as “Control” in FIG. 10). […]

SH-SY5Y cells [2] = assay: Cell survival experiment (MTT), cell death induced by amyloid β protein; type: cell-based; details: compound 12.56 μM, 72 h, compared to “Aβ”
Experimental: Each well of a 96-well plate (BD Biocoat) was seeded with SH-SY5Y cells (model of neuronal cells, ATCC) at a concentration of 2×10^5 cells/mL (100 μL/well) and the cells were cultured at 37° C. and 5% CO2 for 24 h. Culture medium used was F12/DMEM (Gibco) supplemented with 1% non-essential amino acids (Gibco), 15% FBS (Bio West), and 1% penicillin/streptomycin (Lonza).
After 24 h, the culture medium was completely removed with an aspirator, 100 μL of culture medium Opti-MEM (Gibco) was added to each well, and the cells were cultured at 37° C. and 5% CO2 for 24 h. […]
Absorbance at 570 nm was measured on a microplate reader (Sumitomo Dainippon Pharma) to measure the MTT formazan production to calculate % relative cell survival (designated as “Control” in FIG. 1).
24 h after seeding a 96-well plate (BD Biocoat) with SH-SY5Y cells, the culture medium was completely removed with an aspirator, amyloid β protein (Beta-Amyloid 1-42, AnaSpec) was mixed with Opti-MEM (Gibco) so that the final concentration was 15 μM, 100 μL of the mixture was added to each well, and the cells were cultured at 37° C. and 5% CO2 for 72 h to induce cell death. Except for performing the procedure described above, the MTT formazan production was measured as described above to calculate % relative cell survival (designated as “Aβ” in FIG. 1). […]

Q: What does the source list for `COc1cc(-c2[o+]c3cc(O)cc(OC4OC(CO)C(O)C(O)C4O)c3cc2OC2OC(CO)C(O)C(O)C2O)cc(OC)c1O` (stereo not drawn) [M3,5G, Malvidin-3,5-diglucoside chloride]?
A: ROS production (SH-SY5Y cells [1]; compared to “Aβ”): significant reductions; ROS production (SH-SY5Y cells [1]; compared to “Control”): no significance; % relative cell survival (SH-SY5Y cells [2]): significantly high
